The values below come from patent US9968577B2, “Treatment and prevention of bone loss using resolvins” (Forsyth Dental Infirmary for Children, priority 2005, dated 2018).

In this experiment the test system is P. gingivalis-induced periodontitis. Description: Ligature + P. gingivalis experimental periodontitis, topical application of Resolvin E1. It counts as in vivo, New Zealand White rabbits.
Setting [1] is: rabbit, topical, every other day for 6 weeks, compared with baseline.

On to `CC[C@@H](O)/C=C/C=C\C[C@@H](O)/C=C/C=C/C=C\[C@@H](O)CCCC(=O)O` [Resolvin E1], for which the bone loss result (rabbit model, topical administration) is listed as “prevents bone loss”. Moreover, the “soft tissue condition (mandibles, FIG. 2)” value (rabbit, topical resolvin E1 7 μg/μL in ethanol every other day for 6 weeks, starting six weeks after ligature and P. gingivalis, vs control group) is given as “distinctly healthier than the control group”. Further, the “deposition of bone (bone growth), conclusion” value (rabbit, topical, every other day for 6 weeks) is reported as “assisted in deposition of bone”. For the same compound, for the setting “rabbit, topical, every other day for 6 weeks, buccal and lingual, defleshed jaws”, the “hard tissue crestal distance measurements (FIG. 4 and FIG. 5)” value is on record as “same results”. For the same compound, for the setting “rabbit, topical, every other day for 6 weeks, buccal and lingual, vs vehicle alone”, the “soft tissue pocket depth measurements (FIG. 3)” value is “lower”. Moreover, under setting [1], the “hard-tissue-infrabony pocket depth measurements (FIG. 6)” value is on record as “improvement over baseline”, the “soft tissue pocket depth measurements vs baseline (FIG. 3)” value is reported as “improvement over baseline” and the “tooth mobility (FIG. 7)” value was “improvement over baseline”.
